In the supplement of paper PMC10307832:

Key:
Experiment in all cases: relative viability (nuclei count vs DMSO), 5 days (fraction); higher = more cells survive
[1] = compound: CC1=CC(=NN1)NC2=CC(=NC(=N2)/C=C/C3=CC=CC=C3)N4CCN(CC4)C + CCNC(=O)c1noc(-c2cc(C(C)C)c(O)cc2O)c1-c1ccc(CN2CCOCC2)cc1 [Luminespib] (partner 0.01 µM)
How it was run: (§1)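 Relative viability divides the nuclei count in treated wells by that in vehicle wells. Lung cancer cell lines were seeded in 1536-well plates, dosed by pin tool the next day, and fixed and stained after 5 days in one step with final 0.05% Triton X-100, 1% formaldehyde and 1 ug/ml Hoechst. Dosing was a single drug or a fixed anchor-drug dose plus five library-drug doses (not always all listed) in √10 steps, and values are medians of duplicate plates imaged at 4×.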

[2] = compound: CC(C)C[C@H](NC(=O)[C@H](Cc1ccccc1)NC(=O)c1cnccn1)B(O)O [Bortezomib] + COc1cc2c(Oc3ccc(NC(=O)C4(C(=O)Nc5ccc(F)cc5)CC4)cc3F)ccnc2cc1OCCCN1CCOCC1 [Foretinib] (partner 0.25 µM)
How it was run: as §1

[3] = compound: CC1=CC(=NN1)NC2=CC(=NC(=N2)/C=C/C3=CC=CC=C3)N4CCN(CC4)C + Cc1nc(NC(=O)N2CCC[C@H]2C(N)=O)sc1-c1ccnc(C(C)(C)C(F)(F)F)c1 [Alpelisib] (partner 2 µM)
How it was run: as §1

[4] = compound: CC(C)C[C@H](NC(=O)[C@H](Cc1ccccc1)NC(=O)c1cnccn1)B(O)O [Bortezomib] + C[C@@H](Oc1cc(-c2cnn(C3CCNCC3)c2)cnc1N)c1c(Cl)ccc(F)c1Cl [Crizotinib] (partner 1 µM)
How it was run: as §1

Row | Cell Line | relative viability ([1]; first compound 0.08 µM) | relative viability ([1]; first compound 0.253 µM) | relative viability ([1]; first compound 0.8 µM) | relative viability ([1]; first compound 2.53 µM) | relative viability ([1]; first compound 8 µM) | relative viability ([2]; first compound 0.0002 µM) | relative viability ([2]; first compound 0.000632 µM) | relative viability ([2]; first compound 0.002 µM) | relative viability ([2]; first compound 0.006325 µM) | relative viability ([2]; first compound 0.02 µM) | relative viability ([3]; first compound 0.08 µM) | relative viability ([3]; first compound 0.253 µM) | relative viability ([3]; first compound 0.8 µM) | relative viability ([3]; first compound 2.53 µM) | relative viability ([3]; first compound 8 µM) | relative viability ([4]; first compound 0.0002 µM) | relative viability ([4]; first compound 0.000632 µM) | relative viability ([4]; first compound 0.002 µM) | relative viability ([4]; first compound 0.006325 µM) | relative viability ([4]; first compound 0.02 µM)
1 | NCI-H1651 | 0.754 | 0.854 | 0.912 | 0.643 | 0.244 | 0.788 | 0.772 | 0.423 | 0.101 | 0.112 | 0.816 | 0.919 | 1.15 | 0.558 | 0.146 | 0.805 | 0.837 | 0.816 | 0.778 | 0.141
2 | NCI-H1666 | 0.987 | 1.01 | 1.02 | 0.985 | 0.328 | 0.868 | 0.945 | 0.884 | 0.289 | 0.316 | 0.999 | 1.07 | 0.817 | 0.501 | 0.183 | 0.941 | 1.11 | 0.9 | 0.202 | 0.228
3 | NCI-H1734 | 0.178 | 0.236 | 0.163 | 0.145 | 0.109 | 0.786 | 0.9 | 0.759 | 0.176 | 0.109 | 0.601 | 0.695 | 0.692 | 0.375 | 0.189 | 0.737 | 0.71 | 0.491 | 0.106 | 0.0952
4 | NCI-H1755 | 0.496 | 0.416 | 0.748 | 0.346 | 0.157 | 0.939 | 0.972 | 0.868 | 0.494 | 0.192 | 0.9 | 1.07 | 0.887 | 0.456 | 0.155 | 0.866 | 0.828 | 0.877 | 0.196 | 0.156
5 | NCI-H1915 | 0.772 | 0.868 | 0.745 | 0.471 | 0.12 | 1.05 | 1.12 | 1.1 | 0.112 | 0.0806 | 1.07 | 1.07 | 0.977 | 0.806 | 0.324 | 0.877 | 0.909 | 0.694 | 0.435 | 0.0428
6 | NCI-H1944 | 0.63 | 1.06 | 0.815 | 0.553 | 0.164 | 0.791 | 0.818 | 0.87 | 0.724 | 0.199 | 0.816 | 0.995 | 0.759 | 0.568 | 0.304 | 1.06 | 1.04 | 0.899 | 1.21 | 0.142
7 | NCI-H1975 | 0.178 | 0.28 | 0.199 | 0.151 | 0.118 | 0.927 | 0.926 | 0.132 | 0.104 | 0.107 | 0.59 | 0.655 | 0.42 | 0.141 | 0.109 | 0.944 | 0.883 | 0.192 | 0.128 | 0.127
8 | NCI-H1993 | 0.882 | 0.944 | 0.843 | 0.779 | 0.391 | 0.802 | 0.755 | 0.912 | 0.648 | 0.479 | 0.63 |  | 0.581 | 0.61 | 0.493 | 0.876 | 0.974 | 0.847 | 0.342 | 0.506
9 | NCI-H2009 | 0.989 | 1.04 | 0.987 | 1.05 | 0.2 | 1.14 | 1.21 | 1.23 | 0.237 | 0.0866 | 1.09 | 1.19 | 1.16 | 1.13 | 0.241 | 0.992 | 1.06 | 0.956 | 0.329 | 0.0389
10 | NCI-H2023 | 0.741 | 1.12 | 0.524 | 0.0645 | 0.0624 | 0.911 | 0.802 | 1.06 | 0.282 | 0.0757 | 0.482 | 0.645 | 0.626 | 0.417 | 0.0558 | 0.606 | 0.718 | 0.598 | 0.146 | 0.0674
11 | NCI-H2085 | 0.358 | 0.417 | 0.438 | 0.318 | 0.184 | 1.04 | 1.08 | 1.05 | 0.273 | 0.199 | 0.874 | 0.952 | 1.07 | 0.741 | 0.301 | 0.814 | 0.988 | 0.757 | 0.188 | 0.217
12 | NCI-H2087 | 0.209 | 0.212 | 0.158 | 0.119 | 0.136 | 0.972 | 0.975 | 0.794 | 0.0688 | 0.059 | 1.11 | 1.04 | 1.07 | 0.965 | 0.135 | 0.912 | 0.911 | 0.74 | 0.0857 | 0.072
13 | NCI-H2126 | 0.934 | 1.01 | 0.882 | 0.812 | 0.224 | 1.08 | 1.03 | 1.12 | 1.02 | 0.21 | 0.776 | 0.802 | 0.76 | 0.674 | 0.377 | 0.991 | 0.993 | 1.08 | 0.957 | 0.195
14 | NCI-H2170 | 0.705 | 0.692 | 0.688 | 0.444 | 0.14 | 1.02 | 0.952 | 1.03 | 0.596 | 0.167 | 0.765 | 0.861 | 0.668 | 0.494 | 0.147 | 1.03 | 1.02 | 1.11 | 0.233 | 0.18
15 | NCI-H2228 | 0.178 | 0.143 | 0.139 | 0.128 | 0.054 | 0.957 | 0.962 | 0.595 | 0.0857 | 0.0911 | 0.632 | 0.714 | 0.437 | 0.112 | 0.0706 | 0.521 | 0.482 | 0.376 | 0.166 | 0.163
16 | NCI-H2347 | 0.524 | 0.371 | 0.501 | 0.389 | 0.22 | 0.741 | 1.3 | 1.09 | 0.275 | 0.327 | 1.06 | 1.15 | 1.07 | 0.915 | 0.517 | 0.657 | 0.582 | 0.348 | 0.291 | 0.298
